Test results as given in US20050058658A1, “Compositions and methods for immunotherapy of human immunodeficiency virus (HIV)” (priority 2003, published 2005).

Key:
[1] = system: experimental autoimmune encephalomyelitis (EAE); assay: Experimental autoimmune encephalomyelitis (EAE) model; assay type: in vivo, SJL mice; settings: 5 mg s.c. daily for 5 days from day 10
Experimental: This hyposthesis was tested in the experimental autoimmune encephalomyelitis (EAE) model in SJL mice. EAE is induced in mice by immunization with spinal cord derived myelin basic protein which induces a disease in the mice which is very similar to multiple schlerosis (MS) in humans.
Treatments were given daily for 5 days. Linomide is a drug that is known to inhibit EAE and is used as a positive control. […] Severity of EAE is measured by means of the EAE score which starts at 0 for normal and increases to a score of 5 when death occurs. For ethical reasons mice are sacrificed when a score of 4 is reached.

[2] = system: HIV-1IIIB infected CEM-SS cells; assay: MTT staining for cell viability, HIV-1 hollow fiber mouse model; assay type: in vivo
Experimental: (§1) The HIV-1 hollow fiber mouse model was performed (Hollingshead et al., Antiviral Res. 1995, 28:265-279; Buckheit et al., AIDS Res. Hum. Retroviruses 1997, 13:789-796; Xu et al., Bioorg. Med. Chem. Lett. 1999, 9:133-138; Quenelle et al., Antiviral Res. 1997, 35:123-129). In brief, CEM-SS cells were infected with HIV-1IIIB at a multiplicity of infection (MOI) of 0.0002 and sealed in hollow fibers (2×10^5 cells/fiber) immediately prior to implantation in the mice. Cell control hollow fibers (mock infected) and blank fibers (containing tissue culture medium without cells or virus) were prepared in a similar manner. Hollow fibers were implanted in the subcutaneous and intraperitoneal compartments of the mice (three fibers/compartment/mouse). Mice were treated with the E. tenella protein extract once daily (0.1 mL/10 g body weight) on day 0 (immediately prior to implantation of the fibers) and on days 1-6. Cell control, virus control and blank control mice were dosed similarly using 30 mM Hepes. AZT treated mice were also dosed similarly, however, dosing was performed twice daily at a concentration of 150 mg/kg (300 mg/kg/day). On day seven post implantation, the fibers, blood samples and peritoneal wash were collected from the mice. The viability of the infected CEM-SS cells collected from hollow fibers was determined using an MTT dye conversion assay. Viral reverse transcriptase assay and p24 (capsid) antigen quantification were performed on the hollow fiber cultures as well as the blood samples and the peritoneal wash. Of the three fibers collected from each compartment (intraperitoneal and subcutaneous), one fiber was used for analysis of viral reverse transcriptase and p24, while the remaining two fibers used to analyze cell viability by MTT dye reduction. The experimental treatment groups used in the study included the following: • 1. E. tenella protein extract concentration #1 (virus infected fibers; 7 mice) • 2. E. tenella protein extract concentration #2 (virus infected fibers; 7mice) • 3. E. tenella protein extract concentration #3 (virus infected fibers; 7 mice) • 4. AZT; positive control antiviral drug (virus infected fibers; 7 mice) • 5. Virus Control, no drug treatment (treated with vehicle; virus infected fibers; 7 mice) • 6. Cell Control, no drug treatment (treated with vehicle; mock-infected fibers; 7 mice) • 7. Blank Control, no drug treatment (treated with vehicle; “empty” fibers; 2 mice) MTT Staining for Cell Viability:
The viability of cells in the hollow fiber cultures was measured using an MTT dye reduction assay. MTT is a tetrazolium dye that is metabolized by the mitochondria enzymes of metabolically active cells to yield a […] formazan product that can be detected spectrophotometrically. Following collection from the animals, hollow fibers were placed individually into the wells of a 6-well tissue culture plate containing 2 mL of pre-warmed (37° C.) RPMI medium (without phenol red) supplemented with 20% fetal bovine serum. Cells were assayed to viability by adding 180 μL of MTT stock solution (pre-warmed to 37° C.) to each of the wells, followed by incubation for 4 hours at 37° C. in a 5% CO2 atmosphere, removal of medium/MTT solution, and addition of 4 mL of 2.5% Protamine Sulfate (PMS). […] Subsequently, 150 μL of each sample was transferred to a 96 well plate and the optical density of the samples read at 570/650 nm using a Molecular Devices Vmax or SpectraMaxPlus plate reader.

[3] = system: HIV-1IIIB infected CEM-SS cells; assay: Reverse transcriptase assay, HIV-1 hollow fiber mouse model; assay type: in vivo; settings: 150 mg/kg twice daily (300 mg/kg/day), day 7
Experimental: as §1
A microtiter plate-based reverse transcriptase (RT) reaction was utilized (Buckheit et al., AIDS Research and Human Retroviruses 1991, 7:295-302). Tritiated thymidine triphosphate (^3H-TTP 80 Ci/mmol, NEN) was received in 1:1 dH2O: Ethanol at 1 mCi/mL. Poly rA:oligo dT template:primer (Pharmacia) was prepared as a stock solution by combining 150 μL poly rA (20 mg/mL) with 0.5 mL oligo dT (20 units/mL) and 5.35 mL sterile dH2O followed by aliquoting (1.0 mL) and storage at −20° C. The RT reaction buffer was prepared fresh on a daily basis and consisted of 125 μL 1.0 M EGTA, 125 μL dH2O, 125 μL 20% Triton X100, 50 μL 1.0 M Tris (pH 7.4), 50 μL 1.0 M DTT, and 40 μL 1.0 M MgCl2. The final reaction mixture was prepared by combining 1 part ^3H-TTP, 4 parts dH2O, 2.5 parts poly rA:oligo dT stock and 2.5 parts reaction buffer. Ten microliters of this reaction mixture was placed in a round bottom microtiter plate and 15 μL of supernatant resulting from the lysis of cells collected from the fibers (see the section describing the p24 Antigen ELISA above) or serum or peritoneal wash (serum and peritoneal wash samples were clarified by centrifugation without further manipulation prior to analysis) was added and mixed. The plate was incubated at 37° C. for 60 minutes. […]

[4] = system: HIV-1IIIB infected CEM-SS cells; assay: p24 antigen ELISA, HIV-1 hollow fiber mouse model; assay type: in vivo; settings: 150 mg/kg twice daily (300 mg/kg/day), day 7
Experimental: as §1
Following collection of the fibers from the mice, detection of p24 antigen was performed according to the manufacturer's instructions. Individual fibers were cut open and placed in Eppendorf tubes and cells lysed by the addition of 250 μl of lysis buffer (0.02 M Tris-HCl pH 7.5, 0.05 M NaCl, 0.5% Triton X-100), incubation at room temperature for 30 minutes, vortexing, followed by centrifugation at 14,000 rpm for four minutes in a microcentrifuge. Serum and peritoneal wash samples were clarified by centrifugation without further manipulation prior to analysis. All p24 determinations on the resulting supernatants were performed following serial dilution of the samples to ensure absorbances in the linear range of the standard p24 antigen curve. The standard curve is produced using manufacturer-supplied standards and instructions. Data are obtained by spectrophotometric analysis at 450/570 nm using a Molecular Devices Vmax or SpectraMaxPlus plate reader. Final concentrations are calculated from the optical density values using the Molecular Devices SoftMax Pro software package and expressed in pg/ml p24 antigen.

[5] = 150 mg/kg twice daily (300 mg/kg/day), day 7
[6] = 150 mg/kg twice daily (300 mg/kg/day), fibers day 7, optical density 570/650 nm

CN(C(=O)c1c(O)c2ccccc2n(C)c1=O)c1ccccc1 [Linomide]
Day 15 EAE Score ± SD [1]: 0.6 ± 1.3

Cc1cn([C@H]2C[C@H](N=[N+]=[N-])[C@@H](CO)O2)c(=O)[nH]c1=O [AZT, 3′-Azido-3′-deoxythymidine]
MTT Intraperitoneal Fiber, % CPE Reduction, % Value [2, 5]: 0.00%
MTT Subcutaneous Fiber, % CPE Reduction, % Value [2, 5]: 6.83%
MTT Intraperitoneal Fiber, Average [2, 6]: 1.11
MTT Subcutaneous Fiber, Average [2, 6]: 0.96
Effect on cytopathic effect (CPE) of HIV-1IIIB on CEM-SS cells ([2]; hollow fiber cultures, all concentrations tested): did not have an effect on this viral endpoint
Reverse Transcriptase Intraperitoneal Fiber, % Virus Control, % Value [3]: 52.8%
Reverse Transcriptase Intraperitoneal Fiber, Average [3]: 6372 CPM
Reverse Transcriptase Peritoneal Wash, % Virus Control, % Value [3]: 25.7%
Reverse Transcriptase Peritoneal Wash, Average [3]: 392 CPM
Reverse Transcriptase Serum, % Virus Control, % Value [3]: 52.8%
Reverse Transcriptase Serum, Average [3]: 403 CPM
Reverse Transcriptase Subcutaneous Fiber, % Virus Control, % Value [3]: 71.9%
Reverse Transcriptase Subcutaneous Fiber, Average [3]: 10178 CPM
p24 Intraperitoneal Fiber, % Virus Control, % Value [4]: 99.1%
p24 Intraperitoneal Fiber, Average [4]: 215136 pg/mL
p24 Peritoneal Wash, % Virus Control, % Value [4]: 92.8%
p24 Peritoneal Wash, Average [4]: 109 pg/mL
p24 Serum, % Virus Control, % Value [4]: 37.0%
p24 Serum, Average [4]: 18 pg/mL
p24 Subcutaneous Fiber, % Virus Control, % Value [4]: 110.3%
p24 Subcutaneous Fiber, Average [4]: 312334 pg/mL
